Our source for the IC50 values is PubChem BioAssay AID651650 (Sanford-Burnham Center for Chemical Genomics, 2012).

The source made the active and inactive calls.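 How the source made its calls: active means mean IC50 below 20 µM in each of the two panels, so potent in both; inactive means the rest.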

The target of this experiment is Neuropilin-1 (Homo sapiens) (UniProt O14786). Nature of the experiment: NRP-1 b1b2 CendR peptide binding inhibitors, dose response, biochemical, FP and AlphaScreen panel (AID 651650). The note with it: NRP-1 b1b2 / RPARPAR peptide binding, FP or AlphaScreen.
Setting [1] is: AlphaScreen, run 1, individual panel run IC50.
Setting [2] is: FP, run 1, individual panel run IC50.
Where [3] appears, read: FP, run 2, individual panel run IC50.

Neuropilin-1 (Homo sapiens), sequence (O14786 whole entry, looked up): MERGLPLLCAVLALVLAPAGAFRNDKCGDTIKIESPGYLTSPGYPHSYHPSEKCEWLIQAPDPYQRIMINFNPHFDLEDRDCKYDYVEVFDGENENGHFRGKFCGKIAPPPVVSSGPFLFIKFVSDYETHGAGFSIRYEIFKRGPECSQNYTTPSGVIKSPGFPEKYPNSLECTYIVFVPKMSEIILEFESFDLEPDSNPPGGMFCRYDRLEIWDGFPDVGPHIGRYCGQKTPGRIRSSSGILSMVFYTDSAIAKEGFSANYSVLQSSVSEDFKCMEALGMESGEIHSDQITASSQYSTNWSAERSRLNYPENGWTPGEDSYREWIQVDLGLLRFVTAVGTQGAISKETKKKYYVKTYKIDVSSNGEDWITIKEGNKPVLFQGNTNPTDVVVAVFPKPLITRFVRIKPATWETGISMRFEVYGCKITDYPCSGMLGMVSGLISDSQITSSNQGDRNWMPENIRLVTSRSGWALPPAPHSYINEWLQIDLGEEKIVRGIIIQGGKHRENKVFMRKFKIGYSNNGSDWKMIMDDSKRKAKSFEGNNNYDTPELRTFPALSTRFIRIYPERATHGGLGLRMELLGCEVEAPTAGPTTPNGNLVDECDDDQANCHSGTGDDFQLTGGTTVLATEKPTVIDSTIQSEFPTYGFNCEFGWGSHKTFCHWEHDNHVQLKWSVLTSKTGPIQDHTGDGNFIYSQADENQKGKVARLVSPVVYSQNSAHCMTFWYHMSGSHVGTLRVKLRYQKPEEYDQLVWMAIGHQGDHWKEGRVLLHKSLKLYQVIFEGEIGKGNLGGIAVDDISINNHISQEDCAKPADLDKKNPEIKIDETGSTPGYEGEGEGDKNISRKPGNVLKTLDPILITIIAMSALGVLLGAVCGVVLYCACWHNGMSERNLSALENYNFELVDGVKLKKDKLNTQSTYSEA

In general, IC50 refers to the point on the concentration scale where inhibition reaches its midpoint. On to `OCC[C@H]1C[C@H](O)[C@@H](O)[C@]2(CCCCO2)O1`, for which the IC50 is, setting by setting: (AlphaScreen, mean of runs) > 100 µM (inactive); under setting [1], > 100 µM; (FP, mean of runs) > 95 µM (inactive); under setting [2], > 95 µM; under setting [3], > 95 µM.

`O=S(=O)(c1ccccc1)c1nc(-c2ccc(F)cc2)oc1N1CCOCC1`: the IC50 is, setting by setting: (AlphaScreen, mean of runs) > 100 µM (inactive); under setting [1], > 100 µM; (FP, mean of runs) > 95 µM (inactive); under setting [2], > 95 µM; under setting [3], > 95 µM.

Consider `CC(=O)OC1CC[C@]2(C#N)[C@H]3CC[C@]4(C)[C@H](C5C=CC(=O)O5)CCC4(O)C3CCC2(O)C1` (stereo not given in full), for which the IC50 is > 100 µM (inactive) (AlphaScreen, mean of runs); > 100 µM under setting [1]; > 95 µM (inactive) (FP, mean of runs); > 95 µM under setting [2]; > 95 µM under setting [3].

For the compound `CC1(C)c2ccccc2C(=O)c2ccccc21`, the IC50 runs as follows: (AlphaScreen, mean of runs) > 100 µM (inactive); under setting [1], > 100 µM; (FP, mean of runs) > 95 µM (inactive); under setting [2], > 95 µM; under setting [3], > 95 µM.

As for `Cc1ccc(C(=O)Nc2ccccc2-c2ccccc2)cc1S(=O)(=O)Nc1ccccc1`, the IC50 reads like this: (AlphaScreen, mean of runs) > 100 µM (inactive); under setting [1], > 100 µM; (FP, mean of runs) > 95 µM (inactive); under setting [2], > 95 µM; under setting [3], > 95 µM.

On to `COc1cc(OC)nc(NC(=O)COC(=O)c2cccc(Cl)c2)n1`, for which the IC50 entry (AlphaScreen, mean of runs) is “inactive”. Moreover, the half-inhibitory concentration (IC50) is 27.1 µM under setting [1]; > 95 µM (inactive) (FP, mean of runs); > 95 µM under setting [2]; > 95 µM under setting [3].

`NC(=O)C1CCN(c2nc(-c3ccc4occc(=O)c4c3)cs2)CC1`: the IC50 was > 100 µM (inactive) (AlphaScreen, mean of runs); > 100 µM under setting [1]; > 95 µM (inactive) (FP, mean of runs); > 95 µM under setting [2]; > 95 µM under setting [3].

Take `NC(=O)c1c(NC(=O)C(=O)N2CCOCC2)sc2c1CCCC2`: the IC50 by setting is: (AlphaScreen, mean of runs) > 100 µM (inactive); under setting [1], > 100 µM; (FP, mean of runs) > 95 µM (inactive); under setting [2], > 95 µM; under setting [3], > 95 µM.

Take `COc1ccc(/C=N/NC(=O)c2nn(-c3ccc(Cl)cc3)c(=O)c3c(N)scc23)cc1`: the IC50 (AlphaScreen, mean of runs) was > 100 µM (inactive); the IC50 under setting [1] was > 100 µM; the IC50 (FP, mean of runs) is > 95 µM (inactive); the half-maximal inhibitory concentration (IC50) under setting [2] is > 95 µM; the IC50 under setting [3] is > 95 µM.

For the compound `CCOC(=O)C1=CCN(S(=O)(=O)c2ccccc2Br)C1c1ccccc1` (stereo not given), the IC50 was > 100 µM (inactive) (AlphaScreen, mean of runs); > 100 µM under setting [1]; > 95 µM (inactive) (FP, mean of runs); > 95 µM under setting [2]; > 95 µM under setting [3].

Take `O=C(c1ncn(Cc2ccccc2)c1C(=O)N1CCc2ccccc2C1)N1CCc2ccccc2C1`: the IC50 by setting is: (AlphaScreen, mean of runs) > 100 µM (inactive); under setting [1], > 100 µM; (FP, mean of runs) > 95 µM (inactive); under setting [2], > 95 µM; under setting [3], > 95 µM.

On to `CN(Cc1ccccc1)C(=O)c1nc[nH]c1C(=O)N1CCN(C(=O)OC(C)(C)C)CC1`, for which the IC50 is > 100 µM (inactive) (AlphaScreen, mean of runs); > 100 µM under setting [1]; > 95 µM (inactive) (FP, mean of runs); > 95 µM under setting [2]; > 95 µM under setting [3].

In the case of `C=CCN1C(=O)C2(C(C(=O)OCC)=C(N)Oc3ccccc32)c2c1c1ccccc1oc2=O` (stereo not given), the IC50 (AlphaScreen, mean of runs) is > 100 µM (inactive); the IC50 under setting [1] was > 100 µM; the IC50 (FP, mean of runs) is > 95 µM (inactive); the concentration for half-maximal inhibition (IC50) under setting [2] was > 95 µM; the IC50 under setting [3] was > 95 µM.

On to `COC(=O)C1=C(c2ccc(F)cc2OCc2ccccc2)C[C@@H]2CC[C@H]1N2C(=O)NCCNC(C)=O`, for which the half-maximal inhibitory concentration (IC50) is, setting by setting: (AlphaScreen, mean of runs) 9.37 µM; under setting [1], 9.37 µM; (FP, mean of runs) > 95 µM (inactive); under setting [2], > 95 µM; under setting [3], > 95 µM.

In the case of `O=C1c2cc([N+](=O)[O-])cc3cc([N+](=O)[O-])cc(c23)C(=O)N1c1ccccn1`, the IC50 is > 100 µM (inactive) (AlphaScreen, mean of runs); > 100 µM under setting [1]; > 95 µM (inactive) (FP, mean of runs); > 95 µM under setting [2]; > 95 µM under setting [3].

For `COc1cccc(C(=O)N2N=C(c3ccccc3)CC2(O)C(F)(F)F)c1` (stereo not given), the IC50 was > 100 µM (inactive) (AlphaScreen, mean of runs); > 100 µM under setting [1]; > 95 µM (inactive) (FP, mean of runs); > 95 µM under setting [2]; > 95 µM under setting [3].

Regarding `OCC1OC(n2cnc3c(/C=C(\O)c4ccccc4)ncnc32)C(O)C1O` (stereo not given), the IC50 runs as follows: (AlphaScreen, mean of runs) > 100 µM (inactive); under setting [1], > 100 µM; (FP, mean of runs) > 95 µM (inactive); under setting [2], > 95 µM; under setting [3], > 95 µM.

On to `Cn1c(=O)c2c(ncn2CC(COCc2ccccc2)OCc2ccccc2)n(C)c1=O` (stereo not given), for which the IC50 (AlphaScreen, mean of runs) is > 100 µM (inactive); the IC50 under setting [1] was > 100 µM; the IC50 (FP, mean of runs) was > 95 µM (inactive); the IC50 under setting [2] was > 95 µM; the half-maximal inhibitory concentration (IC50) under setting [3] is > 95 µM.

With `CCOC(=O)c1c2ccc(OCC(=O)NN)cc2n2ccccc12`, the IC50 (AlphaScreen, mean of runs) is > 100 µM (inactive); the 50% inhibitory concentration (IC50) under setting [1] was > 100 µM; the IC50 (FP, mean of runs) is > 95 µM (inactive); the IC50 under setting [2] is > 95 µM; the IC50 under setting [3] was > 95 µM.

With `O=C(NCCCN1CCCCCC1)c1ccc(CS(=O)(=O)Cc2ccccc2F)o1`, the IC50 was > 100 µM (inactive) (AlphaScreen, mean of runs); > 100 µM under setting [1]; > 95 µM (inactive) (FP, mean of runs); > 95 µM under setting [2]; > 95 µM under setting [3].

`COc1ccc(C(=O)N[C@H](C(=O)Nc2nc3c(s2)CCCC3)C(C)C)cc1`: the IC50 reads like this: (AlphaScreen, mean of runs) > 100 µM (inactive); under setting [1], > 100 µM; (FP, mean of runs) > 95 µM (inactive); under setting [2], > 95 µM; under setting [3], > 95 µM.

On to `O=C1CCC[C@@H]2Cc3nc4cc5c(cc4cc3[C@@H]3CCN1[C@H]23)OCO5`, for which the IC50 reads like this: (AlphaScreen, mean of runs) > 100 µM (inactive); under setting [1], > 100 µM; (FP, mean of runs) > 95 µM (inactive); under setting [2], > 95 µM; under setting [3], > 95 µM.

On to `Cc1onc(-c2ccccc2)c1C(=O)N1CCCC1`, for which the IC50 (AlphaScreen, mean of runs) was > 100 µM (inactive); the 50% inhibitory concentration (IC50) under setting [1] is > 100 µM; the IC50 (FP, mean of runs) is > 95 µM (inactive); the 50% inhibitory concentration (IC50) under setting [2] was > 95 µM; the IC50 under setting [3] is > 95 µM.

As for `CC(=O)N1CCSc2ccc(S(=O)(=O)Nc3ccc(C)cc3)cc21`, the IC50 by setting is: (AlphaScreen, mean of runs) > 100 µM (inactive); under setting [1], > 100 µM; (FP, mean of runs) > 95 µM (inactive); under setting [2], > 95 µM; under setting [3], > 95 µM.

Regarding `CCOC(=O)N1CCN(C(=O)c2cc(COc3ccc(OC)cc3Cl)on2)CC1`, the IC50 (AlphaScreen, mean of runs) was > 100 µM (inactive); the concentration for half-maximal inhibition (IC50) under setting [1] is > 100 µM; the IC50 (FP, mean of runs) is > 95 µM (inactive); the 50% inhibitory concentration (IC50) under setting [2] was > 95 µM; the IC50 under setting [3] is > 95 µM.

As to `CCOC(=O)C[C@H]1c2cc(C(F)(F)F)ccc2S(=O)(=O)N1Cc1ccccc1`, the IC50 by setting is: (AlphaScreen, mean of runs) > 100 µM (inactive); under setting [1], > 100 µM; (FP, mean of runs) > 95 µM (inactive); under setting [2], > 95 µM; under setting [3], > 95 µM.

Turning to `O=C(Nc1ccccc1N1CCOCC1)c1ccc(N2CCCC2=O)cc1`, the IC50 by setting is: (AlphaScreen, mean of runs) > 100 µM (inactive); under setting [1], > 100 µM; (FP, mean of runs) > 95 µM (inactive); under setting [2], > 95 µM; under setting [3], > 95 µM.

On to `O=C(O)CSc1nnc(-c2ccc(Cl)cc2Cl)n1-c1ccc(Cl)cc1`, for which the IC50 result (AlphaScreen, mean of runs) was “inactive” and the IC50 entry (FP, mean of runs) was “inactive”. For the same compound, the IC50 was 39.9 µM under setting [1], > 95 µM under setting [2] and 34.4 µM under setting [3].

Regarding `Cc1ccnc(N2CCC(C(=O)Nc3ccc4c(c3)OCCO4)CC2)n1`, the IC50 is > 100 µM (inactive) (AlphaScreen, mean of runs); > 100 µM under setting [1]; > 95 µM (inactive) (FP, mean of runs); > 95 µM under setting [2]; > 95 µM under setting [3].

With `CC(C)c1ccc(S(=O)(=O)N2CCN(C(=O)CN3C(=O)c4ccccc4C3=O)CC2)cc1`, the IC50 runs as follows: (AlphaScreen, mean of runs) > 100 µM (inactive); under setting [1], > 100 µM; (FP, mean of runs) > 95 µM (inactive); under setting [2], > 95 µM; under setting [3], > 95 µM.

For `O=C(Nc1ccc(F)cc1)c1cc(S(=O)(=O)Nc2ccc(F)cc2)cs1`, the IC50 runs as follows: (AlphaScreen, mean of runs) > 100 µM (inactive); under setting [1], > 100 µM; (FP, mean of runs) > 95 µM (inactive); under setting [2], > 95 µM; under setting [3], > 95 µM.

Turning to `Cc1ccc(N(C(=O)c2ccc(CN3CCOCC3)o2)C(C(=O)NCCC(C)C)c2cccs2)c(C)c1` (stereo not given), the IC50 by setting is: (AlphaScreen, mean of runs) > 100 µM (inactive); under setting [1], > 100 µM; (FP, mean of runs) > 95 µM (inactive); under setting [2], > 95 µM; under setting [3], > 95 µM.

`CCCN=C1N/C(=C\c2ccco2)C(=O)N1c1ccccc1`: the IC50 reads like this: (AlphaScreen, mean of runs) > 100 µM (inactive); under setting [1], > 100 µM; (FP, mean of runs) > 95 µM (inactive); under setting [2], > 95 µM; under setting [3], > 95 µM.

Consider `Cc1cnccc1CNC(=O)CC1C(=O)NCCN1CC(C)(C)C` (stereo not given), for which the IC50 is > 100 µM (inactive) (AlphaScreen, mean of runs); > 100 µM under setting [1]; > 95 µM (inactive) (FP, mean of runs); > 95 µM under setting [2]; > 95 µM under setting [3].
